Measurements published in patent publication US11717471B2, “Hydrogel microcapsules” (ISP Investments LLC, priority 2010, dated 2023).
Values after ≈ are worked out from the molar mass of the structure shown.

What was measured:
[1] = Solubility of amine monomers of Formula I in water; type: physicochemical
From the text: The insolubility point was reached when a distinct two separate layers was observed.

[2] = Material Safety Data Sheet from Arkema Inc for Norsocryl; cited from earlier work
[3] = 0.1 g amine monomer/100 g deionised water
[4] = 0.2 g amine monomer/100 g deionised water
[5] = 0.3 g amine monomer/100 g deionised water
[6] = 0.4 g amine monomer/100 g deionised water
[7] = 0.5 g amine monomer/100 g deionised water
[8] = 1.0 g amine monomer/100 g deionised water
[9] = 1.5 g amine monomer/100 g deionised water
[10] = 2.0 g amine monomer/100 g deionised water
[11] = 2.5 g amine monomer/100 g deionised water
[12] = 5.0 g amine monomer/100 g deionised water
[13] = 7.5 g amine monomer/100 g deionised water
[14] = 10.0 g amine monomer/100 g deionised water
[15] = 12.5 g amine monomer/100 g deionised water
[16] = 15.0 g amine monomer/100 g deionised water

## C=C(C)C(=O)OCC[N+](C)(CC)CC.COS(=O)(=O)[O-] [DEAEMA Quat DMS, Diethylaminoethyl methacrylate dimethyl sulphate quaternary ammonium form]
[1]; quaternized monomer
  solubility in water: completely water soluble

## C=C(C)C(=O)OCCN(CC)CC [DEAEMA, diethylaminoethyl methacrylate]
[1]; [3]
  solubility in water: soluble
[1]; [4]
  solubility in water: insoluble
[1]; [5]
  solubility in water: insoluble
[1]; [6]
  solubility in water: insoluble
[1]; [7]
  solubility in water: insoluble
[1]; [8]
  solubility in water: insoluble
[1]; [9]
  solubility in water: insoluble
[1]; [10]
  solubility in water: insoluble
[1]; [11]
  solubility in water: insoluble
[1]; [12]
  solubility in water: insoluble
[1]; [13]
  solubility in water: insoluble
[1]; [14]
  solubility in water: insoluble
[1]; [15]
  solubility in water: insoluble
[1]; [16]
  solubility in water: insoluble

## C=C(C)C(=O)OCCN(C(C)C)C(C)C [DPAEMA, Diisopropylaminoethyl methacrylate]
[1]; [3]
  solubility in water: soluble
[1]; [4]
  solubility in water: insoluble
[1]; [5]
  solubility in water: insoluble
[1]; [6]
  solubility in water: insoluble
[1]; [7]
  solubility in water: insoluble
[1]; [8]
  solubility in water: insoluble
[1]; [9]
  solubility in water: insoluble
[1]; [10]
  solubility in water: insoluble
[1]; [11]
  solubility in water: insoluble
[1]; [12]
  solubility in water: insoluble
[1]; [13]
  solubility in water: insoluble
[1]; [14]
  solubility in water: insoluble
[1]; [15]
  solubility in water: insoluble
[1]; [16]
  solubility in water: insoluble

## C=C(C)C(=O)OCCNC(C)(C)C [TBAEMA, tertiary-butylaminoethyl methacrylate]
[1]; [3]
  solubility in water: soluble
[1]; [4]
  solubility in water: soluble
[1]; [5]
  solubility in water: soluble
[1]; [6]
  solubility in water: soluble
[1]; [7]
  solubility in water: soluble
[1]; [8]
  solubility in water: soluble
[1]; [9]
  solubility in water: soluble
[1]; [10]
  solubility in water: insoluble
[1]; [11]
  solubility in water: insoluble
[1]; [12]
  solubility in water: insoluble
[1]; [13]
  solubility in water: insoluble
[1]; [14]
  solubility in water: insoluble
[1]; [15]
  solubility in water: insoluble
[1]; [16]
  solubility in water: insoluble
[1]; estimated from Table 2
  solubility in water: less than 2 g/100 g water
[2]
  solubility in water, published literature value: 18 mg/mL (≈ 97.2 mM)
